Measurements as given in article PMC11345844, “Non-Covalent Inhibitors of SARS-CoV-2 Papain-Like Protease (PLpro): In Vitro and In Vivo Antiviral Activity” (Journal of Medicinal Chemistry, 2024).
Entries after “also recorded” stand apart in the source; their conditions may differ. Read-outs that look alike come from different tables or passages of the source.

How the values were obtained:
Vero E6 cells = details: cited from earlier work
A549-hACE2 cells = details: cited from earlier work
SARS-CoV-2 [1] = details: read-out: Reported cell-based antiviral potency EC50; cited from earlier work
[2] = Plasma exposure after 50 mg/kg i.p. in male C57BL/6 mice
PLpro [3] = details: cited from earlier work; for IC50: read-out: Reported enzyme inhibition potency IC50, see referenced publications for assay details
[4] = i.v. hamster, 2 mg/kg
in vivo [5] = details: male, C57BL/6, mouse, plasma
in vivo [6] = details: male, hamster, plasma
in vitro = details: human
Plasma protein binding = details: human
SARS-CoV-2 (strain WA1) [7] = assay: Antiviral plaque assay in Vero cells with P-gp inhibitor CP-100356; format: cell-based
PLpro [8] = details: compared with all inhibitors studied; cited from earlier work
SARS-CoV-2 (strain WA1) [9] = format: cell-based
[10] = Plasma PK of 32 (Figure S1)
in vivo [11] = details: C57BL/6, mouse, plasma, ip, 25 mg/kg
[12] = Comparison of plasma PK of 10 and 42 (Figure S3); details: 25 mg/kg i.p. (Figure S3)
[13] = 64 25 mg/kg i.p., between 0.5 to 5 h after administration
COVID-19 = details: human, in vivo, po; cited from earlier work
SARS-CoV-2 [14] = details: cited from earlier work

SMILES: Cc1ccc(NC2CNC2)cc1C(=O)N[C@H](C)c1cccc(-c2ccc(CN3CCCC3)s2)c1 [Compound 2]
- potency against viral infection (Vero E6 cells): low micromolar potency
- potency against viral infection (A549-hACE2 cells): low micromolar potency
- EC50 (SARS-CoV-2 [1]): 1.2 ± 0.2 µM
- toxicity observation [2]: overt toxicity

SMILES: CC(=O)Nc1cccc(CNC(=O)C2CCN([C@H](C)c3cccc4ccccc34)CC2)c1 [Compound 3]
- IC50 (PLpro [3]): 2.69 ± 0.34 µM

SMILES: Nc1ccc2cc3ccc(N)cc3nc2c1 [Compound 6, proflavine]
- IC50 (PLpro [3]): 1.46 µM

SMILES: COC(=O)/C=C/CNC(=O)CNC(=O)[C@H](CN)NC(=O)[C@H](CCc1nc2ccccc2s1)NC(C)=O [Compound 8]
- Reported enzyme inhibition (PLpro [3]; at 100 μM): almost complete inhibition

SMILES: Cc1ccc(NC2CNC2)cc1C(=O)N[C@H](C)c1cccc(-c2ccc(CNC3CCCC3)s2)c1 [Compound 10]
- plasma clobs (i.v. mouse, 2 mg/kg): 111 ± 16 mL/min/kg
- bioavailability (i.v./s.c., mice and hamsters, minor species differences): good
- plasma clobs [4]: 75 ± 5 mL/min/kg
- potency against viral infection (Vero E6 cells): low micromolar potency
- potency against viral infection (A549-hACE2 cells): low micromolar potency
- Cmax (in vivo [5]; iv, 2 mg/kg): 734 ± 125 ng/mL
- Cmax (in vivo [5]; sc, 50 mg/kg): 3190 ± 667 ng/mL
- Cmax (in vivo [6]; iv, 2 mg/kg): 2920 ± 474 ng/mL
- Cmax (in vivo [6]; sc, 20 mg/kg): 1220 ± 276 ng/mL
- CC50 (in vitro): 43 ± 1.8 µM
- half-life (Human plasma stability): 60 h
- fraction unbound (Plasma protein binding): 0.033

SMILES: Cc1ccc(NC2CNC2)cc1C(=O)N[C@H](C)c1cccc(-c2ccc(CN[C@H]3CC[C@@H](O)C3)s2)c1 [Compound 11]
- efficacy in inhibiting viral replication (plaque assay) (SARS-CoV-2 (strain WA1) [7]): least efficacious compound
- off-rate (PLpro [8]): lowest off-rate

SMILES: Cc1ccc(NC2CNC2)cc1C(=O)N[C@H](C)c1cccc(-c2cc(C)c(CNC3CCCC3)s2)c1 [Compound 16, (R)-5-(Azetidin-3-ylamino)-N-(1-(3-(5-((cyclopentylamino)methyl)-4-methylthiophen-2-yl)phenyl)ethyl)-2 Methylbenzamide]
- CC50 (in vitro): 27 ± 1.4 µM

SMILES: Cc1ccc(NC2CNC2)cc1C(=O)N[C@H](C)c1cccc(-c2ccc(CNC(=O)C3CCCC3)s2)c1 [Compound 32, (R)-5-(Azetidin-3-ylamino)-N-(1-(3-(5-(cyclopentanecarboxamidomethyl)thiophen-2-yl)phenyl)ethyl)-2-methylbenzamide]
- efficacy in inhibiting viral replication (plaque assay) (SARS-CoV-2 (strain WA1) [7]): almost complete loss of antiviral activity
- antiviral activity by RT-PCR of viral RNA (SARS-CoV-2 (strain WA1) [9]): lack of activity
- bioavailability administered i.p. ([10]; 25 mg/kg i.p. (Figure S1)): good bioavailability
- oral bioavailability ([10]; p.o. 100 mg/kg in corn oil, gavage (Figure S1)): without oral bioavailability

SMILES: Cc1ccc(NC2CNC2)cc1C(=O)N[C@H](C)c1cccc(-c2ccc(CN[C@H]3CC[C@@H](C(=O)O)C3)s2)c1 [Compound 39, (1R,3S)-3-(((5-(3-((R)-1-(5-(Azetidin-3-ylamino)-2-methylbenzamido)ethyl)phenyl)thiophen-2-yl)methyl)amino)cyclopentane-1-carboxylic Acid]
- Cmax (in vivo [11]): 7910 ng/mL
- half-life (in vivo [11]): 2 h

SMILES: Cc1ccc(OC2CNC2)cc1C(=O)N[C@H](C)c1cccc(-c2ccc(CN3CCCC3)s2)c1 [Compound 42, (R)-5-(Azetidin-3-yloxy)-2-methyl-N-(1-(3-(5-(pyrrolidin-1-ylmethyl)thiophen-2-yl)phenyl)ethyl)benzamide]
- efficacy in inhibiting viral replication (plaque assay) (SARS-CoV-2 (strain WA1) [7]): relatively higher efficacy
- in vivo exposure compared to 10 [12]: significantly lower exposure

SMILES: Cc1ccc(OC2CCNCC2)cc1C(=O)N[C@H](C)c1cccc(-c2ccc(CNC3CCCC3)s2)c1 [Compound 44, (R)-N-(1-(3-(5-((Cyclopentylamino)methyl)thiophen-2-yl)phenyl)ethyl)-2-methyl-5-(piperidin-4-yloxy)benzamide]
- CC50 (in vitro): 22 ± 0.9 µM

SMILES: Cc1ccc(OCCN)cc1C(=O)N[C@H](C)c1cccc(-c2ccc(CN3CCCC3)s2)c1 [Compound 48, (R)-5-(2-Aminoethoxy)-2-methyl-N-(1-(3-(5-(pyrrolidin-1-ylmethyl)thiophen-2-yl)phenyl)ethyl)benzamide]
- efficacy in inhibiting viral replication (plaque assay) (SARS-CoV-2 (strain WA1) [7]): low efficacy

SMILES: CC(=O)OC(C)OC(=O)N1CC(Nc2ccc(C)c(C(=O)N[C@H](C)c3cccc(-c4ccc(CNC(=O)C5CCCC5)s4)c3)c2)C1 (stereo partly drawn) [Compound 62, 1-Acetoxyethyl 3-((3-(((R)-1-(3-(5-(cyclopentanecarboxamidomethyl)thiophen-2-yl)phenyl)ethyl)carbamoyl)-4-methylphenyl)amino)azetidine-1-carboxylate]
- antiviral activity by RT-PCR of viral RNA (SARS-CoV-2 (strain WA1) [9]): not greatly improved

SMILES: Cc1ccc(NC2CNC2)cc1C(=O)N[C@H](C)c1cccc(-c2ccc(CN[C@H]3CC[C@@H](C(=O)OC[C@H]4O[C@@H](n5ccc(NO)nc5=O)[C@H](O)[C@@H]4O)C3)s2)c1 [Compound 64, ((3S,4R,5R)-3,4-Dihydroxy-5-(4-(hydroxyamino)-2-oxopyrimidin-1(2H)-yl)tetrahydrofuran-2-yl)methyl (1R,3S)-3-(((5-(3-((R)-1-(5-(azetidin-3-ylamino)-2-methylbenzamido)ethyl)phenyl)thiophen-2-yl)methyl)amino)cyclopentane-1-carboxylate]
- detection of mutual prodrug in plasma [13]: not detectable; also recorded: undetectable

SMILES: CC(C)C(=O)OC[C@H]1O[C@@H](n2cc/c(=N\O)[nH]c2=O)[C@H](O)[C@@H]1O [Compound 65, Molnupiravir]
- efficacy against hospitalization or death (COVID-19): about 30%

SMILES: CC(C)(C)[C@H](NC(=O)C(F)(F)F)C(=O)N1C[C@H]2[C@@H]([C@H]1C(=O)N[C@H](C#N)C[C@@H]1CCNC1=O)C2(C)C [nirmatrelvir]
- left-shift in the response caused by CP-100356 (SARS-CoV-2 [14]): ca. 100 fold
